# pKi: −log10 of the molar value. Entries after “also recorded” stand apart in the source; their conditions may differ. Where a name gives a salt, the structure may show the parent alone. Read-outs that look alike come from different tables or passages of the source.
# Columns and labels:
# [1] = target: T1, 5-HT2A receptor F340^6.52L mutant (Rattus norvegicus, UniProt P14842, F340L); assay: [3H]ketanserin binding at F340L mutant 5-HT2A receptor; conditions: F340L vs wild type 5-HT2A
# 5-HT2A sites = conditions: read-out: Ki, 5-HT2A receptor affinity; [3H]Ketanserin-labeled 5-HT2A sites; ref [13]; cited from earlier work
# NET = NET (Homo sapiens, UniProt P23975); assay: [3H]nisoxitine binding, NET
# 5-HT2A W367^7.40L mutant = conditions: ref [44]; cited from earlier work
# 5-HT2A F340^6.52L mutant = conditions: cited from earlier work
# 5-HT2A F125^2.55L mutant = conditions: cited from earlier work
# 5-HT2A T134^2.64A mutant = conditions: ref [107]; cited from earlier work
# 5-HT2A M132^2.62L mutant = conditions: ref [107]; cited from earlier work
# [2] = target: T1, 5-HT2A receptor F340^6.52L mutant; conditions: F340L vs wild type 5-HT2A, fold decrease; ref [41]; cited from earlier work
# 5-HT2A S159^3.36A mutant = conditions: ref [45]; cited from earlier work
# 5-HT2A F125^2.55S mutant = conditions: ref [107]; cited from earlier work
# 5-HT2A S159^3.36C mutant = conditions: ref [45]; cited from earlier work
# 5-HT2A D172^3.49N mutant = conditions: ref [105]; cited from earlier work
# 5-HT2A W200^4.50A mutant = conditions: ref [44]; cited from earlier work
# T1 sequence (P14842 whole entry F340L): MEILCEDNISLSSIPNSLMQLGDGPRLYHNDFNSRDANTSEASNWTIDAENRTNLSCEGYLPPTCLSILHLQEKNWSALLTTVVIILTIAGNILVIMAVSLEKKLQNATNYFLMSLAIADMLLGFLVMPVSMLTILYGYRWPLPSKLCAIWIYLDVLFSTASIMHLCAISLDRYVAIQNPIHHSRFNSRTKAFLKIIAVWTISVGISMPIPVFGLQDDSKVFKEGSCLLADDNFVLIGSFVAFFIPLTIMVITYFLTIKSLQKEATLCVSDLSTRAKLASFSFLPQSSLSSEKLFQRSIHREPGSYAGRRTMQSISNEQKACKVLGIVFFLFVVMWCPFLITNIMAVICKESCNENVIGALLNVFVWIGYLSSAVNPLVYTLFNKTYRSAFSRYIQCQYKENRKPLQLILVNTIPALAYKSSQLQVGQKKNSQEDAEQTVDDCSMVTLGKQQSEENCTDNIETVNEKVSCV
# Sequence of NET (P23975 whole entry): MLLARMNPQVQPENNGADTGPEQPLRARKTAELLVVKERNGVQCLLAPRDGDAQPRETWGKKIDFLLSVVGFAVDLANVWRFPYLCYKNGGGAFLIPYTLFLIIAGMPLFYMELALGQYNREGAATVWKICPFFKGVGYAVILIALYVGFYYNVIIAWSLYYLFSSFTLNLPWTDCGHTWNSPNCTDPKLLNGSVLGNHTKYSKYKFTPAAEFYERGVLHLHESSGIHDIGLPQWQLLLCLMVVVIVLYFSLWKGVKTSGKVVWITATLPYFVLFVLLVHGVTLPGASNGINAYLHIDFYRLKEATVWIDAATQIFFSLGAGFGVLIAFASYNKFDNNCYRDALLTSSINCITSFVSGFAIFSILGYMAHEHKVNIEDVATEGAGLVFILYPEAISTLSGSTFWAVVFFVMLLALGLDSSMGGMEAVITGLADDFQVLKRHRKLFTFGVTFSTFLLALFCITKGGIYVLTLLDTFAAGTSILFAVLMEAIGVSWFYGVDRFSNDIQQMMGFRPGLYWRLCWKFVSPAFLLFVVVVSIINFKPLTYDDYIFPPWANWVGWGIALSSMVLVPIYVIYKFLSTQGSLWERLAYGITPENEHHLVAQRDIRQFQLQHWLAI
structure (smiles),measurement,setting,value
"NCC1c2ccccc2Cc2ccccc21 [Compound 1a, 9-aminomethyl-9,10-dihydroanthracene]",decrease in affinity at F340L mutant compared to wild type receptor,[1],3 fold
COc1cc(CC(C)N)c(OC)cc1O (stereo not shown) [Compound 2g],pKi,5-HT2A sites,< 4.30
"CCCCCCc1ccc2c(c1)Cc1ccccc1C2CN (stereo not shown) [Compound 1d, 3-n-Hexyl-9-aminomethyl-9,10-dihydroanthracene fumarate]",selectivity for the 5-HT2A receptor over the norepinephrine transporter,NET,120 fold
O=C(c1ccc(F)cc1)C1CCN(CCn2c(=O)[nH]c3ccccc3c2=O)CC1 [ketanserin],Effect on ketanserin binding affinity,5-HT2A W367^7.40L mutant,abolished; also recorded: no detectable binding
same,Effect on ketanserin binding affinity,5-HT2A F340^6.52L mutant; ref [104],no effect
same,Effect on ketanserin binding affinity,5-HT2A F340^6.52L mutant; ref [107],no effect
same,Effect on ketanserin binding affinity,5-HT2A F125^2.55L mutant; ref [44],no effect
same,Effect on ketanserin binding affinity,5-HT2A F125^2.55L mutant; ref [104],no effect
same,Effect on ketanserin binding affinity,5-HT2A F125^2.55L mutant; ref [106],no effect
same,Effect on ketanserin binding affinity,5-HT2A T134^2.64A mutant,no effect
same,Effect on ketanserin binding affinity,5-HT2A M132^2.62L mutant,no effect
same,effect of F340L mutation on affinity,[2],little effect
same,Effect on ketanserin binding affinity,5-HT2A S159^3.36A mutant,no effect
same,Effect on ketanserin binding affinity,5-HT2A F125^2.55S mutant,no effect
same,Effect on ketanserin binding affinity,5-HT2A S159^3.36C mutant,no effect
same,Effect on ketanserin binding affinity,5-HT2A D172^3.49N mutant,no effect
same,Effect on ketanserin binding affinity,5-HT2A W200^4.50A mutant,no effect
"COc1cc(CC(C)N)c(OC)cc1I (stereo not shown) [DOI, 2,5-dimethoxy-4-iodoamphetamine]",effect of F340L mutation on affinity,[2],"approximately 14,000 fold"
"NCC1c2ccccc2Cc2cc(Br)ccc21 (stereo not shown) [Compound 1b, 3-Bromo-9-aminomethyl-9,10-dihydroanthracene hydrochloride]",decrease in affinity at F340L mutant compared to wild type receptor,[1],no change in affinity
